Reference: patent US7851653B2, “Method of creating a solvent-free polymeric silicon-containing quaternary ammonium antimicrobial agent having superior sustained antimicrobial properties” (priority 2005, dated 2010)

Columns and labels:
[1] = tested on: E. coli; experiment: minimum inhibitory concentration (MIC) using E. coli; format: cell-based; conditions: Escherichia coli
Description: Two volumes of 0.01N NH4OH in water were added slowly to one volume of a 42% by weight solution of 3-(trimethoxysilyl) propyldimethyloctadecyl ammonium chloride in methanol while stirring at room temperature. After ten minutes an additional two volumes of 0.01N NH4OH were added, stirring continued for an additional ten minutes. An additional five volumes of 0.1N NH4OH were added and stirred for an additional ten minutes. The methanol and NH4OH were removed by evaporation and the resulting polymer concentrated to 5% (wt/wt) in a rotary evaporator. The solution was dried to a methanol-free dry powder. Infrared and NMR spectroscopy confirmed the resultant powder was a homopolymer of (trimethoxysilyl) propyldimethyloctadecyl ammonium chloride.

[2] = carbon tetrachloride (CTC) activity of activated carbon, ASTM Method D3467; format: physicochemical
Description: Determining whether the impregnation of the carbon with antimicrobial agents had any adverse effect on the adsorption properties of the carbon was accomplished by testing the carbon tetrachloride (CTC) activity of the carbon prior to impregnation and following impregnation with the monomer and polymer forms of the antimicrobial agent. The CTC activity testing was performed by a vendor in accordance with ASTM Method […].

[3] = tested on: E. coli; experiment: ASTM E2149-01 on treated cotton swatches before and after accelerated laundering AATCC 61-1996; format: cell-based
Description: (§1) Antimicrobial testing of the cast PVC films of Example 4 was carried out essentially as described in the ASTM designation E 2149-01 entitled, “Standard test Method for Determining the Antimicrobial Activity of Immobilized Antimicrobial Agents under Dynamic Contact Conditions.” This test is designed to evaluate the antimicrobial properties of materials, which contain active agents that are non-leaching. The method is described briefly below.
E. coli was grown overnight in rich media in an incubator-shaker at 37° C. while shaking at 300 rpm. After 18 hours of incubation, the bacteria were removed from the incubator and the optical density at 660 nm was measured. The culture was diluted until the optical density corresponds to a bacterial concentration of between 1×10^8 and 3×10^8 Colony Forming Units (CFU) per milliliter. The bacteria were further diluted in phosphate buffer (0.3 mM KPO4 at pH 7.2) such that the working concentration was 1×10^6 to 3×10^6 CFU/mL. Test specimens were added to sterile 15 mL test tubes followed by the addition of 3 mL of the bacterial solution. An aliquot was immediately removed from the flask, serially diluted, and used to inoculate Petri plates containing nutrient agar. The plates were incubated overnight and the concentration of bacteria (CFU/mL) was thus determined. This represents the Time 0 (T0) control. The tube containing the sample was placed in a shaking incubator at 37° C. and 300 rpm for one hour, at which time another aliquot was taken and tested as above. This is the treated sample (TF). All tests were controlled by the inclusion of a tube that contained an untreated sample and a flask with no sample but with bacteria. […] Log kill is a standard method to establish the ability of antimicrobial agents to destroy microorganisms. A log kill of 5.0 means that 100,000 microorganisms were destroyed on contact with the treated surface. A log kill of 6.0 establishes that 1,000,000 microorganisms were destroyed on contact with the treated surface. A log kill in excess of 5.0 is typically interpreted as an exceptionally active antimicrobial agent.
Unbleached cotton fabric was treated with various concentration levels of both monomeric 3-(trimethoxysilyl) propyldimethyloctadecyl ammonium chloride and the homopolymer of 3-(trimethoxysilyl) propyldimethyloctadecyl ammonium chloride as prepared in Example 2. In all cases 2 inch (5.1 cm) by 2 inch (5.1 cm) swatches of fabric were treated by immersing them in an aqueous solution containing the respective concentration of monomeric or polymeric 3-(trimethoxysilyl) propyldimethyloctadecyl ammonium chloride for a minimum of ten minutes. The swatches were subsequently removed from the aqueous solution and air-dried overnight. The swatches were analyzed for antimicrobial activity using ASTM E2149-01 as described in Example 5 followed by an accelerated laundering test according to AATCC 61-1996, which simulates multiple laundering effects. The swatches were again analyzed for antimicrobial activity according to ASTM E2149-01 to determine the effect of laundering on the antimicrobial activity. Antimicrobial activity is reported as percent reduction in E. coli concentration.

[4] = tested on: E. coli; experiment: ASTM E 2149-01 antimicrobial activity of immobilized agents under dynamic contact conditions (dynamic shake flask test); format: cell-based
Description: as §1
E. coli was grown overnight in rich media in an incubator-shaker at 37° C. while shaking at 300 rpm. After 18 hours of incubation, the bacteria were removed from the incubator and the optical density at 660 nm was measured. The culture was diluted until the optical density corresponds to a bacterial concentration of between 1×10^8 and 3×10^8 Colony Forming Units (CFU) per milliliter. The bacteria were further diluted in phosphate buffer (0.3 mM KPO4 at pH 7.2) such that the working concentration was 1×10^6 to 3×10^6 CFU/mL. Test specimens were added to sterile 15 mL test tubes followed by the addition of 3 mL of the bacterial solution. An aliquot was immediately removed from the flask, serially diluted, and used to inoculate Petri plates containing nutrient agar. The plates were incubated overnight and the concentration of bacteria (CFU/mL) was thus determined. This represents the Time 0 (T0) control. […]

## CCCCCCCCCCCCCCCCCC[N+](C)(C)CCC[Si](OC)(OC)OC.[Cl-] [Monomer, 3-(trimethoxysilyl) propyldimethyloctadecyl ammonium chloride]
[1]
  MIC: 0.98 µg/mL
[2]; activated carbon treated at 0.1 wt. % agent
  (Wt.) % CTC: 77.6 (Wt.) %
[2]; activated carbon treated at 0.25 wt. % agent
  (Wt.) % CTC: 73.4 (Wt.) %
[2]; activated carbon treated at 0.5 wt. % agent
  (Wt.) % CTC: 75.4 (Wt.) %
[3]; 0.010 % active in solution
  % Reduction, laundered: 0%
  % Reduction, unlaundered: 22%
[3]; 0.025 % active in solution
  % Reduction, laundered: 0%
  % Reduction, unlaundered: 38%
[3]; 0.050 % active in solution
  % Reduction, laundered: 98.86%
  % Reduction, unlaundered: 95%
[3]; 0.075 % active in solution
  % Reduction, laundered: 99.19%
  % Reduction, unlaundered: 99.59%
[3]; 0.100 % active in solution
  % Reduction, laundered: 99.91%
  % Reduction, unlaundered: 99.99%
[3]; 0.25 % active in solution
  % Reduction, laundered: 99.99%
  % Reduction, unlaundered: 99.99%
[4]; coconut shell activated carbon treated at 0.1 wt. % agent
  Log Kill: None
[4]; coconut shell activated carbon treated at 0.25 wt. % agent
  Log Kill: 6.11
